Laboratory results taken from patent US20110160223A1, “NMDA Receptor Antagonists for the Treatment of Neuropsychiatric Disorders” (priority 2008, published 2011).
Like-named read-outs stand apart in the source and are kept apart here.

Biological target: NMDA receptor (NR1 + NR2 subunits) (Rattus norvegicus, UniProt P35439+Q00960)
Assay: Two electrode voltage clamp recording from Xenopus laevis oocytes (pH dependence of NMDA antagonism)
Type: cell-based
Protocol: cRNA was synthesized from linearized template cDNA for rat glutamate receptor subunits according to manufacturer specifications (Ambion). Quality of synthesized cRNA was assessed by gel electrophoresis, and quantity was estimated by spectroscopy and gel electrophoresis. Stage V and VI oocytes were surgically removed from the ovaries of large, well-fed and healthy Xenopus laevis anesthetized with 3-amino-benzoic acid ethyl ester (3 gm/l) as previously described. Clusters of isolated oocytes were incubated with 292 U/ml Worthington (Freehold, N.J.) type IV collagenase or 1.3 mg/ml collagenase (Life Technologies, Gaithersburg, Md.; 17018-029) for 2 hr in Ca^2+-free solution comprised of (in mM) 115 NaCl, 2.5 KCl, and 10 HEPES, pH 7.5, with slow agitation to remove the follicular cell layer. Oocytes were then washed extensively in the same solution supplemented with 1.8 mM CaCl2 and maintained in Barth's solution comprised of (in mM): 88 NaCl, 1 KCl, 2.4 NaHCO3, 10 HEPES, 0.82 MgSO4, 0.33 Ca(NO3)2, and 0.91 CaCl2 and supplemented with 100 μg/ml gentamycin, 10 μg/ml streptomycin, and 10 μg/ml penicillin. Oocytes were manually defolliculated and injected within 24 hrs of isolation with 3-5 ng of NR1 subunit cRNA and 7-10 ng of NR2 cRNA subunit in a 50 nl volume, or 5-10 ng of AMPA or kainate receptor cRNAs in a 50 nl volume, and incubated in Barth's solution at 18° C. for 1-7 d. Glass injection pipettes had tip sizes ranging from 10-20 microns, and were backfilled with mineral oil.
Two electrode voltage-clamp recordings were made 2-7 days post-injection as previously described. Oocytes were placed in a dual-track plexiglass recording chamber with a single perfusion line that splits in a Y-configuration to perfuse two oocytes. Dual recordings were made at room temperature (23° C.) using two Warner OC725B two-electrode voltage clamp amplifiers, arranged as recommended by the manufacturer. Glass microelectrodes (1-10 Megaohms) were filled with 300 mM KCl (voltage electrode) or 3 M KCl (current electrode). The bath clamps communicated across silver chloride wires placed into each side of the recording chamber, both of which were assumed to be at a reference potential of 0 mV. Oocytes were perfused with a solution comprised of (in mM) 90 NaCl, 1 KCl, 10 HEPES, and 0.5 BaCl2; pH was adjusted by addition of 1-3 M NaOH of HCl. Oocytes were recorded under voltage clamp at −40 mV. Final concentrations for control application of glutamate (50 μM) plus glycine (30 μM) were achieved by adding appropriate volumes from 100 and 30 mM stock solutions, respectively. In addition, 10 μM final EDTA was obtained by adding a 1:1000 dilution of 10 mM EDTA, in order to chelate contaminant divalent ions such as Zn^2+. Concentration-response curves for experimental compounds were obtained by applying in successive fashion maximal glutamate/glycine, followed by glutamate/glycine plus variable concentrations of experimental compounds. Dose response curves consisting of 4 to 8 concentrations were obtained in this manner. The baseline leak current at −40 mV was measured before and after recording, and the full recording linearly corrected for any change in leak current. Oocytes with glutamate-evoked responses smaller than 50 nA were not included in the analysis. The level of inhibition by applied experimental compounds was expressed as a percent of the initial glutamate response, and averaged together across oocytes from a single frog. Each experiment consisted of recordings from 3 to 10 oocytes obtained from a single frog. Results from 3-6 experiments were pooled, and the average percent responses at antagonist concentrations were fitted by the equation,
Percent Response=(100−minimum)/(1+([conc]/IC50)^nH)+minimum […]

[1] = pH 6.9, Table 17, read-out: IC50 at pH 6.9
[2] = pH 7.6, Table 17, read-out: IC50 at pH 7.6
[3] = pH 6.9, Table 18, read-out: IC50 at pH 6.9
[4] = pH 7.6, Table 18, read-out: IC50 at pH 7.6
[5] = pH 6.9, Table 19, read-out: IC50 at pH 6.9
[6] = pH 7.6, Table 19, read-out: IC50 at pH 7.6
[7] = pH 6.9, Table 20, read-out: IC50 at pH 6.9
[8] = pH 7.6, Table 20, read-out: IC50 at pH 7.6
[9] = pH 6.9, Table 21, read-out: IC50 at pH 6.9
[10] = pH 7.6, Table 21, read-out: IC50 at pH 7.6

NMDA receptor (NR1 + NR2 subunits), sequence (Q00960 27-1482, other chains not shown): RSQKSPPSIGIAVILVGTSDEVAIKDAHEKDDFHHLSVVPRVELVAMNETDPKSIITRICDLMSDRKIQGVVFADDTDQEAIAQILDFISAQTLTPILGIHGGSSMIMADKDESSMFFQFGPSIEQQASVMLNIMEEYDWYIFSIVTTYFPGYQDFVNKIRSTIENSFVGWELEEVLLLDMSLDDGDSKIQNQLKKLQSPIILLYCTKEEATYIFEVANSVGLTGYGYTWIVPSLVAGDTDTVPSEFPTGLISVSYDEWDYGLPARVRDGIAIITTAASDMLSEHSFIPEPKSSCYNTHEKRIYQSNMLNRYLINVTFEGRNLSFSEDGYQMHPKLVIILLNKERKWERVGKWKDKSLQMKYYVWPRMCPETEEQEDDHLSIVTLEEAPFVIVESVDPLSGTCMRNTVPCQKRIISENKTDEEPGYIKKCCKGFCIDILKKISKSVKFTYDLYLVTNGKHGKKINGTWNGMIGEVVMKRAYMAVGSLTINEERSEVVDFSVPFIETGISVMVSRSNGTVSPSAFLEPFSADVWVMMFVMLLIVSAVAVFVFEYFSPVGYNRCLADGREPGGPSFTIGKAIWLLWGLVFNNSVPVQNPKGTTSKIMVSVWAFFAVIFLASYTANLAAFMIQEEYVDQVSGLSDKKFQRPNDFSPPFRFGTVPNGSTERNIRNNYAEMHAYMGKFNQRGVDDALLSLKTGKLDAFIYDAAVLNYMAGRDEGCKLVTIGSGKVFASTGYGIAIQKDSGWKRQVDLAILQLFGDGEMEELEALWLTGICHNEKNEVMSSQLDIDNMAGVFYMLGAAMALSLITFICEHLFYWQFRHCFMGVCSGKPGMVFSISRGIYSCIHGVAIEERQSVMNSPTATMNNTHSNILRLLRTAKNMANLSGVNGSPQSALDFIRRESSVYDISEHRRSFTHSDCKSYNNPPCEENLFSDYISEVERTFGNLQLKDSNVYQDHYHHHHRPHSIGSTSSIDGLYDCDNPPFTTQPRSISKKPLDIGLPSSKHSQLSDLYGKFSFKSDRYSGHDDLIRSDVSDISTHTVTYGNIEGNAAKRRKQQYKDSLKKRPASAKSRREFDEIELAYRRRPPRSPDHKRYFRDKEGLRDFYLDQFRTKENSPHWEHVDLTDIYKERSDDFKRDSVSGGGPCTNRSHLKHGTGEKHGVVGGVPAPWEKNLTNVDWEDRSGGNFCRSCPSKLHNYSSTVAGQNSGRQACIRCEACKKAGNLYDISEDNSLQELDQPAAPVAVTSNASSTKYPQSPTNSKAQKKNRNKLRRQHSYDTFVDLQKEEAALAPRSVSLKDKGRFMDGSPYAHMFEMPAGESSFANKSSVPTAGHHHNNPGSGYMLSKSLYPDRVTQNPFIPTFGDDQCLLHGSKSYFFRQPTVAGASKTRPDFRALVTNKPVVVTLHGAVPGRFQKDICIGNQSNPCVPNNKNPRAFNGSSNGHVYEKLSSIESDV

CS(=O)(=O)Nc1ccc(OCC(O)CN2CCN(c3ccc(F)c(F)c3)CC2)cc1 (centres unmarked)
IC50 [1]: 31 nM
IC50 [2]: 557 nM

CS(=O)(=O)Nc1ccc(OCC(O)CNCCNc2ccc(Cl)c(Cl)c2)cc1 (centres unmarked)
IC50 [1]: 12 nM
IC50 [2]: 62 nM

CS(=O)(=O)Nc1ccc(OCC(O)CN2CCN(c3ccc(Cl)c(Cl)c3)CC2)cc1 (centres unmarked)
IC50 [1]: 296 nM
IC50 [2]: 1020 nM

CS(=O)(=O)Nc1ccc(OCC(O)CN2CCN(c3ccc(Cl)cc3)CC2)cc1 (centres unmarked)
IC50 [1]: 32 nM
IC50 [2]: 270 nM

CS(=O)(=O)Nc1ccc(OCC(O)CN2CCN(c3ccccc3)CC2)cc1 (centres unmarked)
IC50 [1]: 213 nM
IC50 [2]: 1020 nM

CS(=O)(=O)Nc1ccc(OCC(O)CN2CCN(c3ccc(O)cc3)CC2)cc1 (centres unmarked)
IC50 [1]: 2400 nM
IC50 [2]: 28000 nM

CS(=O)(=O)Nc1ccc(OCC(O)CN2CCN(c3ccccn3)CC2)cc1 (centres unmarked)
IC50 [1]: 1810 nM
IC50 [2]: 12700 nM

CS(=O)(=O)Nc1ccc(OCC(O)CN2CCN(c3ccncc3)CC2)cc1 (centres unmarked)
IC50 [1]: > 30000 nM
IC50 [2]: > 30000 nM

CS(=O)(=O)Nc1ccc(OCC(O)CNCCNc2ccccc2)cc1 (centres unmarked)
IC50 [1]: 55 nM
IC50 [2]: 133 nM

CS(=O)(=O)Nc1ccc(OCC(O)CNCCNc2ccc(F)c(F)c2)cc1 (centres unmarked)
IC50 [1]: 108 nM
IC50 [2]: 199 nM

CS(=O)(=O)Nc1ccc(OCC(O)CNC/C=C/c2ccc(Cl)c(Cl)c2)cc1 (centres unmarked)
IC50 [1]: 7 nM
IC50 [2]: 38 nM

CCCCN(C/C=C/c1ccc(Cl)c(Cl)c1)CC(O)COc1ccc(NS(C)(=O)=O)cc1 (centres unmarked)
IC50 [1]: 163 nM
IC50 [2]: 2580 nM

CS(=O)(=O)Nc1ccc(OCC(O)CNC/C=C/c2ccc(F)c(F)c2)cc1 (centres unmarked)
IC50 [1]: 38 nM
IC50 [2]: 71 nM

O=c1[nH]c2ccc(OCC(O)CN3CCN(c4ccc(Cl)cc4)CC3)cc2o1 (centres unmarked)
IC50 [3]: 79 nM
IC50 [4]: 726 nM

O=c1[nH]c2ccc(OC[C@H](O)CN3CCN(c4ccc(F)c(F)c4)CC3)cc2o1
IC50 [3]: 145 nM
IC50 [4]: 1700 nM

O=c1[nH]c2ccc(OC[C@H](O)CN3CCN(c4ccc(Cl)c(Cl)c4)CC3)cc2o1
IC50 [3]: 185 nM
IC50 [4]: 1500 nM

Cc1ccc(N2CCN(C[C@@H](O)COc3ccc4[nH]c(=O)oc4c3)CC2)cc1
IC50 [3]: 72 nM
IC50 [4]: 644 nM

O=c1[nH]c2ccc(OCC(O)CNCCc3ccc(Cl)c(Cl)c3)cc2o1 (centres unmarked)
IC50 [3]: 185 nM
IC50 [4]: 446 nM

O=c1[nH]c2ccc(OCC(O)CNCCNc3ccc(Cl)cc3)cc2o1 (centres unmarked)
IC50 [3]: 25 nM
IC50 [4]: 97 nM

Oc1ccc(OC[C@H](O)CN2CCN(c3ccc(Cl)cc3)CC2)cc1
IC50 [5]: 80 nM
IC50 [6]: 814 nM

Oc1ccc(OC[C@H](O)CN2CCN(c3ccc(Cl)c(Cl)c3)CC2)cc1
IC50 [5]: 131 nM
IC50 [6]: 611 nM

Oc1ccc(OCC(O)CN2CCN(c3ccc(F)c(F)c3)CC2)cc1 (centres unmarked)
IC50 [5]: 87 nM
IC50 [6]: 980 nM

Oc1ccc(OC[C@H](O)CN2CCN(c3ccc(F)c(F)c3)CC2)cc1
IC50 [5]: 50 nM
IC50 [6]: 272 nM

Oc1ccc(OC[C@H](O)CN2CCN(c3ccc(F)cc3)CC2)cc1
IC50 [5]: 87 nM
IC50 [6]: 529 nM

Cc1ccc(N2CCN(CC(O)COc3ccc(O)cc3)CC2)cc1C (centres unmarked)
IC50 [5]: 1500 nM
IC50 [6]: 5790 nM

Cc1ccc(N2CCN(CC(O)COc3ccc(O)cc3)CC2)cc1 (centres unmarked)
IC50 [5]: 70 nM
IC50 [6]: 260 nM

N#Cc1ccc(N2CCN(C[C@@H](O)COc3ccc(O)cc3)CC2)cc1
IC50 [5]: 460 nM
IC50 [6]: 4370 nM

Oc1ccc(OCC(O)CN2CCN(c3ccc(Br)cc3)CC2)cc1 (centres unmarked)
IC50 [5]: 73 nM
IC50 [6]: 204 nM

Oc1ccc(OCC(O)CN2CCN(c3ccc(O)cc3)CC2)cc1 (centres unmarked)
IC50 [5]: 576 nM
IC50 [6]: 4700 nM

COc1ccc(N2CCN(C[C@@H](O)COc3ccc(O)cc3)CC2)cc1
IC50 [5]: 562 nM
IC50 [6]: 9740 nM

Oc1ccc(OCC(O)CN2CCN(c3ccc(C(F)(F)F)cc3)CC2)cc1 (centres unmarked)
IC50 [5]: 113 nM
IC50 [6]: 448 nM

Oc1ccc(OCC(O)CN2CCN(c3ccc(-c4ccccc4)cc3)CC2)cc1 (centres unmarked)
IC50 [5]: 6950 nM
IC50 [6]: 191000 nM

Oc1ccc(OC[C@H](O)CN2CCN(c3ccc(F)cc3F)CC2)cc1
IC50 [5]: 529 nM
IC50 [6]: 3560 nM

Oc1ccc(OC[C@H](O)CN2CCN(c3ccccc3F)CC2)cc1
IC50 [5]: 541 nM
IC50 [6]: 1730 nM

Oc1ccc(OCC(O)CN2CCN(c3ccccc3Cl)CC2)cc1 (centres unmarked)
IC50 [5]: 978 nM
IC50 [6]: 4390 nM

Cc1ccccc1N1CCN(C[C@@H](O)COc2ccc(O)cc2)CC1
IC50 [5]: 430 nM
IC50 [6]: 3930 nM

N#Cc1ccccc1N1CCN(C[C@@H](O)COc2ccc(O)cc2)CC1
IC50 [5]: 3210 nM
IC50 [6]: 8330 nM

Oc1ccc(OCC(O)CN2CCN(c3ccccc3)CC2)cc1 (centres unmarked)
IC50 [5]: 217 nM
IC50 [6]: 476 nM

Oc1ccc(OC[C@H](O)CN2CCN(c3cccc(F)c3)CC2)cc1
IC50 [5]: 211 nM
IC50 [6]: 598 nM

Oc1ccc(OC[C@H](O)CN2CCN(c3cccc(Cl)c3)CC2)cc1
IC50 [5]: 257 nM
IC50 [6]: 4800 nM

Cc1cccc(N2CCN(C[C@@H](O)COc3ccc(O)cc3)CC2)c1
IC50 [5]: 341 nM
IC50 [6]: 1740 nM

Oc1ccc(OCC(O)CN2CCN(c3cccc(C(F)(F)F)c3)CC2)cc1 (centres unmarked)
IC50 [5]: 386 nM
IC50 [6]: 3790 nM

Oc1ccc(OCC(O)CNCCc2ccc(Cl)c(Cl)c2)cc1 (centres unmarked)
IC50 [5]: 197 nM
IC50 [6]: 501 nM

CCCCN(CCc1ccc(Cl)c(Cl)c1)CC(O)COc1ccc(O)cc1 (centres unmarked)
IC50 [5]: 585 nM
IC50 [6]: 6500 nM

Oc1ccc(OCC(O)CNCCc2ccc(Cl)c(Cl)c2)c(F)c1 (centres unmarked)
IC50 [5]: 116 nM
IC50 [6]: 330 nM

Oc1ccc(OCC(O)CNCCc2ccc(Cl)c(Cl)c2)cc1F (centres unmarked)
IC50 [5]: 114 nM
IC50 [6]: 549 nM

Oc1ccc(OC[C@H](O)CN2CCC(O)(c3ccccc3)CC2)cc1
IC50 [5]: 191 nM
IC50 [6]: 298 nM

NC(=O)Nc1ccc(OCCCN2CCN(c3ccc(F)c(F)c3)CC2)cc1
IC50 [7]: 82 nM
IC50 [8]: 696 nM

C=C(COc1ccc(NC(N)=O)cc1)CN1CCN(c2ccc(F)c(F)c2)CC1
IC50 [7]: 557 nM
IC50 [8]: 10400 nM

NC(=O)Nc1ccc(OCCCN2CCN(c3ccc(F)cc3)CC2)cc1
IC50 [7]: 117 nM
IC50 [8]: 625 nM

NC(=O)Nc1ccc(OC[C@H](O)CN2CCN(c3ccc(Cl)cc3)CC2)cc1
IC50 [7]: 19 nM
IC50 [8]: 60 nM

CCNC(=O)Nc1ccc(OCCCN2CCN(c3ccc(F)cc3)CC2)cc1
IC50 [7]: 3030 nM
IC50 [8]: 15700 nM

COC(=O)Nc1ccc(OCCCN2CCN(c3ccc(F)cc3)CC2)cc1
IC50 [7]: 1540 nM
IC50 [8]: 16200 nM

CS(=O)(=O)Nc1ccc(OCC(=O)NCCNc2ccc(Cl)c(Cl)c2)cc1
IC50 [9]: 13 nM
IC50 [10]: 58 nM

CS(=O)(=O)Nc1ccc(OCCNCCNc2ccc(Cl)c(Cl)c2)cc1
IC50 [9]: 14 nM
IC50 [10]: 36 nM

CS(=O)(=O)Nc1ccc(CCC(=O)N2CCN(c3ccc(Cl)c(Cl)c3)CC2)cc1
IC50 [9]: 670 nM
IC50 [10]: 5330 nM

CS(=O)(=O)Nc1ccc(CCC(=O)N2CCN(c3ccc(F)c(F)c3)CC2)cc1
IC50 [9]: 2200 nM
IC50 [10]: 8400 nM

CS(=O)(=O)Nc1ccc(CCCN2CCN(c3ccc(Cl)c(Cl)c3)CC2)cc1
IC50 [9]: 230 nM
IC50 [10]: 2730 nM

CS(=O)(=O)Nc1ccc(OCC(=O)N2CCN(c3ccc(Cl)c(Cl)c3)CC2)cc1
IC50 [9]: 40 nM
IC50 [10]: 129 nM

O=C(COc1ccc2[nH]c(=O)oc2c1)N1CCN(c2ccc(F)c(F)c2)CC1
IC50 [9]: 307 nM
IC50 [10]: 467 nM

O=C(COc1ccc2[nH]c(=O)oc2c1)N1CCN(c2ccc(Cl)cc2)CC1
IC50 [9]: 189 nM
IC50 [10]: 243 nM
